Source: ChEMBL document CHEMBL3988181, “GlaxoSmithKline Published Kinase Inhibitor Set 2 Onchocerca lienalis Screening Data”

Assay: GSK PKIS2: Screen against O. lienalis microfilariae, single point, at 3.1uM to assess reduction in motility. Compounds were also tested for cytotoxicity against Rhesus Monkey LLCMK2 cells.
Assay type: functional, Onchocerca lienalis, LLC-MK2
Settings: CELL_LINE LLCMK2; CELL_SUPPLIER ECACC; CONC 3.1 uM; ORGANISM_SUPPLIER Extracted from peri-umbilical skin obtained from naturally infected cattle in the UK; temperature 37 degree C

Point of comparison: `Cc1ccc(C)c(NC(=O)NC2CCN(c3ccnc(Nc4ccc(F)cc4)n3)C2)c1` (centres undefined), “MOTILITY REDUCTION/CYTOTOXICITY” value 33.4%. Against it:
- Nc1nccc(-c2ccc3c(N)n[nH]c3c2)n1 — lower, 0%
- Nc1cccc(-c2ccc3c(N)n[nH]c3c2)c1 — the same, 33.4%
- O=c1[nH]cc(-c2ccc(O)cc2)c2sc(-c3ccncc3)cc12 — lower, 0%
- NC(=O)c1cc(-c2ccccc2)cc2c(C3CCNCC3)c[nH]c12 — lower, 0%
- C[C@H]1CC[C@@H](C(=O)Nc2ccccc2)CN1c1cc(-c2ccc3c(N)n[nH]c3c2)nc(N)n1 — lower, 0%
- C[C@@H]1CC[C@@H](C(=O)Nc2ccccc2)CN1c1cc(-c2ccc3c(N)n[nH]c3c2)nc(N)n1 — lower, 0%
- C[C@@H]1CC[C@H](C(=O)NC2CCCCC2)CN1c1cc(-c2ccc3c(N)n[nH]c3c2)nc(N)n1 — lower, 0%
- CC(C)(C)OC(=O)NC1CCCN(c2cc(-c3ccc4c(N)n[nH]c4c3)nc(N)n2)C1 (centres undefined) — lower, 0%
- CNc1nccc(-c2ccc3c(N)n[nH]c3c2)n1 — lower, 0%
- CC(C)c1cc(-c2ccc3c(N)n[nH]c3c2)nc(N)n1 — lower, 0%
- CC(C)Nc1cc(-c2ccc3c(N)n[nH]c3c2)nc(N)n1 — higher, 60%
- Nc1nc(-c2ccc3c(N)n[nH]c3c2)cc(N2CCCCC2)n1 — lower, 0%
- c1ccc(-c2cnc3nccnn23)cc1 — lower, 0%
- Fc1cccc(COc2ccc(Nc3ncnc4nn5ccccc5c34)cc2Cl)c1 — lower, 0%
- Cc1cccc(Nc2nc(N[C@H]3CCCC[C@H]3N)ncc2C(N)=O)c1 — higher, 40%
- CCS(=O)(=O)c1ccc(OC)c(Nc2ncc(-c3ccc(F)cc3)o2)c1 — lower, 0%
- CN1CCN(CCCNc2nccc(-c3c(-c4ccc(F)cc4)nn4cc(C(N)=O)ccc34)n2)CC1 — lower, 13.4%
- O=c1cc(N2CCOCC2)nc2n(Cc3cccc(Cl)c3Cl)ccn12 — higher, 80%
- Cc1ccccc1Cn1ccn2c(=O)cc(N3CCOCC3)nc12 — lower, 0%
- Cc1cccc(Cn2ccn3c(=O)cc(N4CCOCC4)nc23)c1 — lower, 0%
- Cc1c(Cn2ccn3c(=O)cc(N4CCOCC4)nc23)cccc1C(F)(F)F — lower, 0%
- O=c1cc(N2CCOCC2)nc2n(Cc3cccc(Cl)c3Cl)c3ccccc3n12 — lower, 0%
- Cc1c(Cn2c(C)c(C)n3c(=O)cc(N4CCOCC4)nc23)cccc1C(F)(F)F — lower, 0%
- CSc1nn2c(=O)cc(N3CCOCC3)nc2n1Cc1cccc(Cl)c1Cl — higher, 46.7%
- Cc1cccc(-c2cc(-c3c[nH]nc3-c3ccccn3)ccn2)c1 — lower, 0%
- Cn1cc(-c2ccc3c(c2)CCN3C(=O)Cc2ccccc2Cl)c2c(N)ncnc21 — lower, 16.7%
- COc1cccc(CC(=O)N2CCc3cc(-c4cn(C)c5ncnc(N)c45)ccc32)c1 — lower, 0%
- Cn1cc(-c2ccc3c(c2)CCN3C(=O)Cc2cc(F)cc(F)c2F)c2c(N)ncnc21 — lower, 0%
- Nc1ncc(-c2cccnc2)c2scc(-c3ccc4c(c3)CCN4C(=O)Cc3ccccc3)c12 — lower, 0%
- Nc1nccc2scc(-c3ccc4c(c3)CCN4C(=O)Cc3cc(F)ccc3F)c12 — lower, 0%
- Cc1ccc(CC(=O)N2CCc3cc(-c4cn(C)c5ncnc(N)c45)ccc32)cc1 — lower, 0%
- COC(=O)Nc1nc2ccc(Oc3ccc(NC(=O)Nc4cccc(SC)c4)cc3)cc2[nH]1 — lower, 20%
- COC(=O)Nc1nc2ccc(Oc3ccc(NC(=O)Nc4cc(C(F)(F)F)ccc4Cl)cc3)cc2[nH]1 — lower, 0%
- COC(=O)Nc1nc2ccc(Oc3ccc(NC(=O)Nc4cc(C(F)(F)F)ccc4F)cc3)cc2n1C — lower, 0%
- COc1cc2ncnc(Nc3cccc(Br)c3)c2cc1OC — higher, 60%
- Fc1ccc(-c2nc3n(c2-c2ccncc2)CCS3)cc1 — lower, 13.4%
- Nc1nc(-c2cccnc2)c(-c2ccnc3ccccc23)s1 — the same, 33.4%
- Nc1nc(-c2nccs2)c(-c2ccnc3ccccc23)s1 — lower, 0%
- COC(=O)Nc1nc2cc(Oc3ccc(NC(=O)Nc4cc(C(F)(F)F)ccc4F)cc3)ccc2[nH]1 — lower, 0%
- FC(F)(F)c1ccccc1-c1cc(-c2c[nH]nc2-c2ccccn2)ccn1 — lower, 0%
- CS(=O)(=O)Nc1ccc(-c2ccnc3[nH]ccc23)cc1 — lower, 0%
- NCC(NC(=O)c1cc(-c2cccnc2)c(-c2ccnc3[nH]ccc23)s1)c1ccccc1 (centres undefined) — lower, 0%
- NCC(NC(=O)c1cc(-c2ccccc2)c(-c2ccnc3[nH]ccc23)s1)c1ccccc1 (centres undefined) — lower, 0%
- NC[C@H](CC1CCCCC1)NC(=O)c1cc(Br)c(-c2ccnc3[nH]ccc23)s1 — lower, 0%
- CS(=O)(=O)CCNCc1nc(-c2ccc3ncnc(Nc4ccc5c(cnn5Cc5ccccc5)c4)c3c2)cs1 — the same, 33.4%
- COc1ccc(COc2cc(-n3cnc4ccccc43)sc2C(N)=O)cc1 — lower, 0%
- COc1cc2ncn(-c3cc(OCc4sccc4Cl)c(C(N)=O)s3)c2cc1OC — lower, 13.4%
- NC[C@H](Cc1ccc(C(F)(F)F)cc1)NC(=O)c1cc(Br)c(-c2ccnc3[nH]ccc23)s1 — lower, 0%
- c1ccc(-c2cc3ccncc3cc2OC2CCNCC2)cc1 — higher, 93.4%
- Cc1ccc2c(-c3ccncc3)c(-c3ccc(F)cc3)nn2c1 — lower, 0%
- Cc1cccc2c(-c3ccncc3)c(-c3ccc(F)cc3)nn12 — higher, 46.7%
- CCn1c(-c2nonc2N)nc2c(-c3ccccc3)ncc(OCCCN)c21 — higher, 100%
- NC(CNC(=O)c1cc(Br)c(-c2ccnc3[nH]ccc23)s1)c1ccccc1 (centres undefined) — higher, 40%
- CS(=O)(=O)CCNCc1nc(-c2ccc3ncnc(Nc4ccc(OCc5ccccc5)c(Cl)c4)c3c2)cs1 — lower, 0%
- Fc1ccc(-c2nn3c(OCC(F)(F)F)cccc3c2-c2ccncc2)cc1 — lower, 13.4%
- COc1cc2ncn(-c3cc(OCC4CCCCC4)c(C(N)=O)s3)c2cc1OC — the same, 33.4%
- COc1cc(Nc2nccc(-c3c(-c4cccc(NC(=O)c5c(F)cccc5F)c4)nn4ncccc34)n2)cc(OC)c1OC — lower, 16.7%
- Cc1ccc(NC(=O)c2ccc(Cl)c(Cl)c2)cc1-c1ccc(C(=O)Nc2ccncc2)cc1 — lower, 26.7%
- Cc1ccc(Nc2ccnc(Nc3ccc4c(c3)CS(=O)(=O)C4)n2)cc1O — higher, 80%
- COc1cc(Nc2nccc(N3CCC(NC(=O)Nc4cccc(C(C)=O)c4)C3)n2)cc(OC)c1OC (centres undefined) — higher, 100%
- Cc1ccc(NC(=O)Nc2ccccc2F)cc1-c1ccc(C(=O)Nc2ccncc2)cc1 — higher, 53.4%
- COc1cc(Nc2nccc(N3CCC(NC(=O)C4COc5ccccc5O4)C3)n2)cc(OC)c1OC (centres undefined) — lower, 0%
- N#Cc1cccc(C(=O)NC2CCN(c3ccnc(Nc4ccc(F)cc4)n3)C2)c1 (centres undefined) — lower, 20%
- COc1cc(Nc2nccc(N3CCC(NC(=O)c4cccc(NC(C)=O)c4)C3)n2)cc(OC)c1OC (centres undefined) — the same, 33.4%
- COc1ccc(Nc2nccc(NCCNC(=O)c3cc4ccccc4s3)n2)cc1 — lower, 16.7%
- COc1ccc(Nc2nccc(-c3cccc(NC(=O)c4cc5cc(F)ccc5[nH]4)c3)n2)cc1 — higher, 53.4%
- COc1cc2nccc(Nc3cccc(Oc4ccccc4)c3)c2cc1OC — lower, 0%
- COc1ccc(CNC(=O)NC2CCN(c3ccnc(Nc4ccc(OC)cc4)n3)C2)cc1 (centres undefined) — lower, 0%
- O=C(NC1CCN(c2ccnc(Nc3ccc(F)cc3)n2)C1)c1cc2ccccc2s1 (centres undefined) — lower, 0%
- N#Cc1ccc(CCNc2nccc(-c3cccc(CN4CCNCC4)c3)n2)cc1 — lower, 0%
- O=C(Nc1ccc2c(c1)OCO2)NC1CCN(c2ccnc(Nc3ccc(F)cc3)n2)C1 (centres undefined) — the same, 33.4%
- Cc1ccc(NC(=O)Nc2ccccc2)cc1-c1ccc(C(=O)Nc2ccncc2)cc1 — higher, 100%
- O=c1[nH]ccc2nc(N[C@@H]3CCNC3)nc(Nc3ccc4c(c3)S(=O)(=O)CC4)c12 — lower, 0%
- c1ccc(Oc2ccc(Nc3ccnc4cc(-c5ccc(CNCCN6CCOCC6)o5)ccc34)cc2)nc1 — lower, 0%
- CCCc1ccc(S(=O)(=O)NC2CCN(c3ccnc(Nc4ccc(OC)cc4)n3)C2)cc1 (centres undefined) — lower, 0%
- CC(C(=O)NC1CCN(c2ccnc(Nc3ccc(F)cc3)n2)C1)c1ccc(Cl)cc1 (centres undefined) — the same, 33.4%
- COc1ccc(Nc2nccc(N3CCC(NC(=O)C(C)c4ccc(Cl)cc4)CC3)n2)cc1 (centres undefined) — the same, 33.4%
- COc1ccc(Nc2nccc(N3CCC(NC(=O)c4cccc(NC(C)=O)c4)C3)n2)cc1 (centres undefined) — lower, 0%
- O=C(Nc1cccc(-c2nn3ncccc3c2-c2ccnc(Nc3ccccc3)n2)c1)c1c(F)cccc1F — lower, 0%
- COc1cc2nccc(Nc3ccc(NC(=O)c4ccc(C)cc4)c(O)c3)c2cc1OC — lower, 0%
- COc1cccc(NC(=O)Nc2ccc(C)c(-c3ccc(C(=O)Nc4ccncc4)cc3)c2)c1 — higher, 100%
- Cc1ccc(S(=O)(=O)Nc2ccc(Nc3nccc(Nc4cccc5[nH]ncc45)n3)cc2)cc1 — lower, 0%
- COC(=O)c1cccc(NC(=O)NC2CCN(c3ccnc(Nc4ccc(F)cc4)n3)C2)c1 (centres undefined) — lower, 0%
- Fc1cc(Cl)ccc1Nc1ccnc2cc(-c3ccc(CN4CCSCC4)o3)ccc12 — the same, 33.4%
- Fc1cc(Cl)ccc1Nc1ccnc2cc(I)ccc12 — the same, 33.4%
- O=C(Nc1ccc2c(c1)OCO2)NC1CCN(c2ccnc(NCc3ccc(F)cc3)n2)CC1 — the same, 33.4%
- CNC(=O)c1ccccc1Nc1nc(Nc2cccc(CS(C)(=O)=O)c2)ncc1C — the same, 33.4%
- Nc1ncc(-c2ccc3nccc(-c4ccncc4)c3c2)cc1S(=O)(=O)N1CCOCC1 — higher, 40%
